Assay results from patent US9173882B2, “Polycyclic heteroaryl substituted triazoles useful as Axl inhibitors” (Rigel Pharmaceuticals, Inc., priority 2008, dated 2015).
pIC50: −log10 of the molar value.

Biological target: T1, Axl (Homo sapiens, UniProt P30530)
T1 construct: endogenous in cells; host or cells: HeLa cells
T1 sequence (P30530 26-894): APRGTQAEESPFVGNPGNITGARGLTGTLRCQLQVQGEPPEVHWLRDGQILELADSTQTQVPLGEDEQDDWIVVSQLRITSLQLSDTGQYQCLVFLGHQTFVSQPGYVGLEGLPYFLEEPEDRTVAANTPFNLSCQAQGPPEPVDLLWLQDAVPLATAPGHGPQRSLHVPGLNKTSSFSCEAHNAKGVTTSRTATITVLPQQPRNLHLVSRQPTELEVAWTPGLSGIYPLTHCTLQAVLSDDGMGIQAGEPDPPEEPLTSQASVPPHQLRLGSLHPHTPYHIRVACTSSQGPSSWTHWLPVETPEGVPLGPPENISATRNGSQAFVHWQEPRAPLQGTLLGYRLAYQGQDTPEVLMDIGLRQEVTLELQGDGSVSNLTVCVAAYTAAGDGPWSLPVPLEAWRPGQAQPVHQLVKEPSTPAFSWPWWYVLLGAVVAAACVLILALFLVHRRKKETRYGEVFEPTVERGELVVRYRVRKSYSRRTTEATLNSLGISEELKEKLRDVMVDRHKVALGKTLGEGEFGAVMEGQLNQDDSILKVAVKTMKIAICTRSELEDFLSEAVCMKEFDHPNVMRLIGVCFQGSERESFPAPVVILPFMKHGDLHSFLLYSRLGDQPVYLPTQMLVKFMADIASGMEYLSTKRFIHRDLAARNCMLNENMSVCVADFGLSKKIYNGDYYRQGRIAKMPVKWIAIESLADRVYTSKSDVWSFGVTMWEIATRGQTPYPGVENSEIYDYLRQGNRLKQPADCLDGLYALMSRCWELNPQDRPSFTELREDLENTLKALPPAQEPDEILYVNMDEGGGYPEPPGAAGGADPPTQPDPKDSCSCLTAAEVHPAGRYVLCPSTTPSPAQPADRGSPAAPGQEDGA
Assay: Phospho-Akt in-cell Western assay
Type: cell-based
Settings: Hela cells, stimulated by Axl-antibody cross-linking, phospho-Akt chemiluminescence
Experimental: Phospho-Akt in-Cell Western Assay
The compounds of the invention were tested in the following assay for their ability to inhibit Axl activity.
• Cell culture plate: 96 well assay plate (Corning 3610), white, clear bottom, tissue-culture treated. • Cells: Hela cells. • Starvation medium: For Axl stimulation: 0.5% FCS (fetal calf serum) in DMEM, plus Axl/Fc (extracellular domain of AXL fused to imunoglobulin Fc region) (R&D, 154-AL) 500 ng/mL. • For EGF (epidermal growth factor) stimulation: 0.5% FCS in DMEM (Dulbecco's modified Eagles medium). • Poly-L-Lysine 0.01% solution (the working solution): 10 μg/ml, dilute In PBS (phosphate buffered saline). • Axl antibody cross-linking: • 1st: Mouse anti-Axl (R&D, MAB154). • 2nd: Biotin-SP-conjugated AffiniPure goat anti-mouse IgG (H+L) (Jackson ImmunoResearch #115-065-003). • Fixing buffer: 4% formaldehyde in PBS. • Wash buffer: 0.1% TritonX-100 in PBS. • Quenching buffer: 3% H2O2, 0.1% Azide in wash buffer, Azide and hydrogen peroxide (H2O2) are added fresh. • Blocking buffer: 5% BSA in TBST (tris buffered saline plus 0.1% Tween 20). • Primary antibody: Rabbit anti-human Phospho-Akt antibody (Cell Signaling 9271): 1×250 diluted in blocking buffer. • Secondary antibody: HRP (horse radish peroxidase)-conjugated Goat anti-Rabbit secondary, stock solution: Jackson ImmunoResearch (Goat anti-Rabbit HRP, #111-035-144) 1:1 diluted in glycerol, store at −20° C. The working solution: 1×2000 dilution of stock in blocking buffer. • Chemiluminescent working solution (Pierce, 37030): SuperSignal ELISA (enzyme linked immunosorbant assay) Pico Chemiluminescent substrate. • Crystal Violet solution: Stock: 2.5% Crystal violet in methanol, filtered and kept at ambient temperature. The working solution: dilute the stock 1:20 with PBS immediately before use. • 10% SDS: working solution: 5% SDS (sodium dodecylsulfate), diluted in PBS Methods: Day 1:
A 96 well TC (tissue culture treated) plate was coated with 10 μg/mL poly-L-Lysine at 37° C. for 30 min, washed twice with PBS, and air-dried for 5 minutes before cells were added. Hela cells were seeded at 10,000 cells/well and the cells were starved in 100 μL starvation medium containing Axl/Fc for 24 hrs.
The cells were pre-treated with test compounds by adding 100 μL of 2× test compound to the starvation medium on the cells. The cells were incubated at 37° C. for 1 hr before stimulation.
The cells were stimulated by Axl-antibody cross-linking as follows: A 5× 1st/2nd Axl antibody mixture was made (37.5 μg/mL 1st/100 μg/mL 2nd) in starvation medium and nutated at 4° C. with thorough mixing for 1-2 hours for clustering. The resulting mix was warmed to 37° C. 50 μL of 5× Axl 1st/2nd of antibody cluster was added to the cells and the cells were incubated at 37° C. for 5 min.
After 5 minutes stimulation, the plate was flicked to remove medium and the plate was tapped onto paper towels. Formaldehyde (4.0% in PBS, 100 μL) was added to fix the cells and the cells were incubated at ambient temperature for 20 min without shaking.
The cells were washed with a plate washer buffer to remove the formaldehyde solution. The plate was flicked to removed excess wash buffer and tapped onto paper towels. Quenching buffer (100 μL) was added to each well and the cells were incubated at ambient temperature for 20 minutes without shaking.
The cells were washed with a plate washer buffer to remove the quenching buffer. Blocking buffer (100 μL) was added and the cells were incubated at ambient temperature for at least an hour with gentle shaking.
The cells were washed with a plate washer buffer and diluted primary antibody (50 μL) was added to each well (blocking buffer was added to the negative control wells instead). The plates were incubated overnight at 4° C. with gentle shaking.
The wash buffer was removed, diluted secondary antibody (100 μL) was added, and the cells were incubated at ambient temperature for 1 hour with gentle shaking. […]

pIC50 (Table 1, formula (Ia))	SMILES	pIC50 (Table 2, formula (Ib))
> 6.00	CC(=O)NC1CCc2ccc(Nc3nc(N)n(-c4cc5c(nn4)-c4ccccc4CCC5)n3)cc2CC1 (stereo not drawn) [Compound 1, 1-(6,7-dihydro-5H-benzo[6,7]cyclohepta[1,2-c]pyridazin-3-yl)-N^3-(7-(acetamido)-6,7,8,9-tetrahydro-5H-benzo[7]annulene-2-yl)-1H-1,2,4-triazole-3,5-diamine]	–
> 6.00	COC(=O)[C@H]1CCCN1C1CCc2ccc(Nc3nc(N)n(-c4cc5c(nn4)-c4ccccc4CCC5)n3)cc2CC1 (stereo partly drawn) [Compound 2, 1-(6,7-dihydro-5H-benzo[6,7]cyclohepta[1,2-c]pyridazin-3-yl)-N^3-(7-((2R)-2-(methoxycarbonyl)pyrrolidin-1-yl)-6,7,8,9-tetrahydro-5H-benzo[7]annulene-2-yl)-1H-1,2,4-triazole-3,5-diamine]	–
5.00 to 6.00	Nc1nc(Nc2ccc3c(c2)CCC(N2CCC(F)(F)CC2)CC3)nn1-c1cc2c(nn1)-c1ccccc1CCC2 (stereo not drawn) [Compound 3, 1-(6,7-dihydro-5H-benzo[6,7]cyclohepta[1,2-c]pyridazin-3-yl)-N^3-(7-(4,4-difluoropiperidin-1-yl)-6,7,8,9-tetrahydro-5H-benzo[7]annulene-2-yl)-1H-1,2,4-triazole-3,5-diamine]	–
> 6.00	COC(=O)CN(C)C1CCc2ccc(Nc3nc(N)n(-c4cc5c(nn4)-c4ccccc4CCC5)n3)cc2CC1 (stereo not drawn) [Compound 4, 1-(6,7-dihydro-5H-benzo[6,7]cyclohepta[1,2-c]pyridazin-3-yl)-N^3-(7-((methoxycarbonylmethyl)(methyl)amino)-6,7,8,9-tetrahydro-5H-benzo[7]annulene-2-yl)-1H-1,2,4-triazole-3,5-diamine]	–
> 6.00	Nc1nc(Nc2ccc3c(c2)CCC(N2CCC[C@@H]2C(=O)O)CC3)nn1-c1cc2c(nn1)-c1ccccc1CCC2 (stereo partly drawn) [Compound 5, 1-(6,7-dihydro-5H-benzo[6,7]cyclohepta[1,2-c]pyridazin-3-yl)-N^3-(7-((2R)-2-(carboxy)pyrrolidin-1-yl)-6,7,8,9-tetrahydro-5H-benzo[7]annulene-2-yl)-1H-1,2,4-triazole-3,5-diamine]	–
> 6.00	CCOC(=O)C1CCN(C2CCc3ccc(Nc4nc(N)n(-c5cc6c(nn5)-c5ccccc5CCC6)n4)cc3CC2)CC1 (stereo not drawn) [Compound 6, 1-(6,7-dihydro-5H-benzo[6,7]cyclohepta[1,2-c]pyridazin-3-yl)-N^3-(7-(4-(ethoxycarbonyl)piperidin-1-yl)-6,7,8,9-tetrahydro-5H-benzo[7]annulene-2-yl)-1H-1,2,4-triazole-3,5-diamine]	–
> 6.00	Nc1nc(Nc2ccc3c(c2)CCC(N2CCC(C(=O)O)CC2)CC3)nn1-c1cc2c(nn1)-c1ccccc1CCC2 (stereo not drawn) [Compound 7, 1-(6,7-dihydro-5H-benzo[6,7]cyclohepta[1,2-c]pyridazin-3-yl)-N^3-(7-(4-(carboxy)piperidin-1-yl)-6,7,8,9-tetrahydro-5H-benzo[7]annulene-2-yl)-1H-1,2,4-triazole-3,5-diamine]	–
5.00 to 6.00	CN(CC(=O)O)C1CCc2ccc(Nc3nc(N)n(-c4cc5c(nn4)-c4ccccc4CCC5)n3)cc2CC1 (stereo not drawn) [Compound 8, 1-(6,7-dihydro-5H-benzo[6,7]cyclohepta[1,2-c]pyridazin-3-yl)-N^3-(7-((carboxymethyl)(methyl)amino)-6,7,8,9-tetrahydro-5H-benzo[7]annulene-2-yl)-1H-1,2,4-triazole-3,5-diamine]	–
> 6.00	CCOC(=O)CN1CCN(C2CCc3ccc(Nc4nc(N)n(-c5cc6c(nn5)-c5ccccc5CCC6)n4)cc3CC2)CC1 (stereo not drawn) [Compound 9, 1-(6,7-dihydro-5H-benzo[6,7]cyclohepta[1,2-c]pyridazin-3-yl)-N^3-(7-(4-(ethoxycarbonylmethyl)piperazin-1-yl)-6,7,8,9-tetrahydro-5H-benzo[7]annulene-2-yl)-1H-1,2,4-triazole-3,5-diamine]	–
5.00 to 6.00	Nc1nc(Nc2ccc3c(c2)CCC(N2CCN(CC(=O)O)CC2)CC3)nn1-c1cc2c(nn1)-c1ccccc1CCC2 (stereo not drawn) [Compound 10, 1-(6,7-dihydro-5H-benzo[6,7]cyclohepta[1,2-c]pyridazin-3-yl)-N^3-(7-(4-(carboxymethyl)piperazin-1-yl)-6,7,8,9-tetrahydro-5H-benzo[7]annulene-2-yl)-1H-1,2,4-triazole-3,5-diamine]	–
< 4.70	Nc1nc(Nc2cccc3c2CCC(N2CCCC2)CC3)nn1-c1cc2c(nn1)-c1ccccc1CCC2 (stereo not drawn) [Compound 11, 1-(6,7-dihydro-5H-benzo[6,7]cyclohepta[1,2-c]pyridazin-3-yl)-N^3-(7-(pyrrolidin-1-yl)-6,7,8,9-tetrahydro-5H-benzo[7]annulene-1-yl)-1H-1,2,4-triazole-3,5-diamine]	–
–	Nc1nc(Nc2cccc3c2CCC(N2CCCC2)CC3)n(-c2cc3c(nn2)-c2ccccc2CCC3)n1 (stereo not drawn) [Compound 12, 1-(6,7-dihydro-5H-benzo[6,7]cyclohepta[1,2-c]pyridazin-3-yl)-N^5-(7-(pyrrolidin-1-yl)-6,7,8,9-tetrahydro-5H-benzo[7]annulene-1-yl)-1H-1,2,4-triazole-3,5-diamine]	> 6.00
–	CC(C)(C)OC(=O)N[C@H]1CCc2ccc(Nc3nc(N)nn3-c3cc4c(nn3)-c3ccccc3CCC4)cc2CC1 [Compound 14, 1-(6,7-dihydro-5H-benzo[6,7]cyclohepta[1,2-c]pyridazin-3-yl)-N^5-((7S)-7-(t-butoxycarbonylamino)-6,7,8,9-tetrahydro-5H-benzo[7]annulene-2-yl)-1H-1,2,4-triazole-3,5-diamine]	< 4.70
5.00 to 6.00	Nc1nc(Nc2ccc3c(c2)CC[C@@H](N)CC3)nn1-c1cc2c(nn1)-c1ccccc1CCC2 [Compound 15, 1-(6,7-dihydro-5H-benzo[6,7]cyclohepta[1,2-c]pyridazin-3-yl)-N^3-((7S)-7-amino-6,7,8,9-tetrahydro-5H-benzo[7]annulene-2-yl)-1H-1,2,4-triazole-3,5-diamine]	–

SMILES	pIC50 (Table 1, formula (Ia))	pIC50 (Table 2, formula (Ib))
CC(C)(C)OC(=O)N[C@H]1CCc2ccc(Nc3nc(N)n(-c4cc5c(nn4)-c4ccccc4CCC5)n3)cc2CC1 [Compound 13, 1-(6,7-dihydro-5H-benzo[6,7]cyclohepta[1,2-c]pyridazin-3-yl)-N^3-((7S)-7-(t-butoxycarbonylamino)-6,7,8,9-tetrahydro-5H-benzo[7]annulene-2-yl)-1H-1,2,4-triazole-3,5-diamine]	< 4.70	–
